These results are taken from patent publication US8722715B2, “Antimicrobial oxazolidinone, hydantoin and imidazolidinone compositions” (NovaBay Pharmaceuticals, priority 2008, dated 2014).

Common to all, as to format: cell-based
The subject of data set [1] is Candida albicans (MCC 50319). Kind of data set: Antimicrobial activity, MFC, C. albicans MCC 50319. The settings on record: 1 h at room temperature. As to the method: (§1) To determine antimicrobial activity of compounds of the present disclosure, Escherichia coli (ATCC 25922), Staphylococcus aureus (ATCC 29213), Pseudomonas aeruginosa (ATCC 27853), and Candida albicans (ATCC 10231) were used in primary screening. In addition, Escherichia coli (MCC 80392), Staphylococcus aureus (MCC 91731), Pseudomonas aeruginosa (MCC 4438), and Candida albicans (MCC 50319), provided by Alcon Laboratories, Fort Worth, Tex., were used. The microbial cultures were diluted in sterile saline pH 4 to prepare inocula. Test compounds were titrated by stepwise two-fold dilutions in sterile saline pH 4. A total of 1.0×10^5 to 1.0×10^6 Colony Forming Units (CFU)/mL microbe was added to each tube, mixed by gentle vortexing, and then incubated at room temperature for 1 h. Microbial plating on Petri dishes (Tryptic Soy agar or Saboraud's Dextrose agar) was performed immediately after the designated exposure after neutralization of the test article dilutions in Dey-Engley Broth. Plates were incubated at 37° C., and the numbers of microbes were counted by direct colony count to quantitate the surviving microbes as CFU/mL. Positive growth controls were made with sterile 0.9% saline. Compounds were dissolved in unbuffered isotonic saline (SAL) or phosphate buffered saline (PBS) at pH 4 or pH 7 (using HCl and/or NaOH as needed). All compounds were tested three times. […]

Data set [2] deals with Candida albicans (ATCC 10231). Kind of data set: Antimicrobial activity, MFC, C. albicans ATCC 10231. The settings on record: 1 h at room temperature. As to the method:
(§2) To determine antimicrobial activity of compounds of the present disclosure, Escherichia coli (ATCC 25922), Staphylococcus aureus (ATCC 29213), Pseudomonas aeruginosa (ATCC 27853), and Candida albicans (ATCC 10231) were used in primary screening. In addition, Escherichia coli (MCC 80392), Staphylococcus aureus (MCC 91731), Pseudomonas aeruginosa (MCC 4438), and Candida albicans (MCC 50319), provided by Alcon Laboratories, Fort Worth, Tex., were used. The microbial cultures were diluted in sterile saline pH 4 to prepare inocula. Test compounds were titrated by stepwise two-fold dilutions in sterile saline pH 4. A total of 1.0×10^5 to 1.0×10^6 Colony Forming Units (CFU)/mL microbe was added to each tube, mixed by gentle vortexing, and then incubated at room temperature for 1 h. Microbial plating on Petri dishes (Tryptic Soy agar or Saboraud's Dextrose agar) was performed immediately after the designated exposure after neutralization of the test article dilutions in Dey-Engley Broth. Plates were incubated at 37° C., and the numbers of microbes were counted by direct colony count to quantitate the surviving microbes as CFU/mL. Positive growth controls were made with sterile 0.9% saline. Compounds were dissolved in unbuffered isotonic saline (SAL) or phosphate buffered saline (PBS) at pH 4 or pH 7 (using HCl and/or NaOH as needed). All compounds were tested three times. The results are tabulated to show the comparison of antimicrobial effectiveness range of the compounds. Data shown are the Minimum Bactericidal Concentration (MBC) or Minimum Fungicidal Concentration (MFC) (≧99.9% kill) in μg/mL.

Data set [3] concerns mouse fibroblast cells (ATCC CCL-1, L929). Kind of data set: Cytotoxicity, WST-8 colorimetric assay. The settings on record: pH 4 (Sal), 60 min exposure, WST-8 read after 18-20 hours. As to the method:
Cytotoxicity is assessed by a colorimetric assay system using the Dojindo™ cell counting kit containing 2-(2-methoxy-4-nitrophenyl)-3-(4-nitrophenyl)-5-(2,4-disulfophenyl)-2H-tetrazolium, monosodium salt (WST-8). In this assay, the WST-8 reagent is bioreduced by cellular dehydrogenases to a formazan product that is highly soluble in tissue culture medium. The orange formazan, which is produced only by live cells, is a direct measure of cell viability and can be read spectrophotometrically (e.g., evaluation of a soluble tetrazolium/formazan assay for cell growth and drug sensitivity in culture using human and other tumor cell lines is described by D. A. Scudiero et al., Cancer Res., 48(17), 4827-33 (1988). Similar approaches for determining the cell viability are known in the art.
In a standard assay, mouse fibroblast cells (ATCC CCL-1, L929), are cultured in Minimum Essential Medium, α-medium supplemented with 10% heat inactivated fetal bovine serum, L-glutamine, penicillin and streptomycin. Cells are trypsinized and counted under the microscope and seeded at 1.5×10^4 total cells per 100 μL per well of a flat-bottom 96-well plate in order to achieve ˜80% confluence after overnight incubation at 37° C. […]
Test articles were prepared as 2-fold serial dilutions and 170 μL of each dilution was added into each of 4-wells (total volume per well=200 μL). […] Absorbance was read at 450 nm with reference wavelength at 750 nm using Molecular Device SpectraMax M5 plate reader. […]
The CT50 value for each compound was calculated from the absorbance values (A450/750) and is defined as the concentration of test article that results in survival of 50% of the cells following treatment. The absorbance A450/750 from each well of untreated cells and from each well within the dilution series was measured. […] Next, a non-linear regression (curve fit) analysis was performed on all the absorbance data measured from the dilution series, including the absorbance data obtained from wells of the untreated control cells. […]
On the technique in general: Tetrazolium assays rely on reduction of a dye to a coloured formazan, in cell work by metabolically active cells.

Data set [4] concerns Escherichia coli (MCC 80392). Kind of data set: Antimicrobial activity, MBC, E. coli MCC 80392. The settings on record: 1 h at room temperature. As to the method: as §1
Data set [5] deals with Staphylococcus aureus (MCC 91731). Kind of data set: Antimicrobial activity, MBC, S. aureus MCC 91731. The settings on record: 1 h at room temperature. As to the method: as §1
For data set [6], the system named is Staphylococcus aureus (ATCC 29213). Kind of data set: Antimicrobial activity, MBC, S. aureus ATCC 29213. The note with it: 1 h at room temperature. As to the method:
as §2

Data set [7] deals with Pseudomonas aeruginosa (ATCC 27853). Kind of data set: Antimicrobial activity, MBC, P. aeruginosa ATCC 27853. The settings on record: pH 7 (PBS), 1 h at room temperature. As to the method:
as §1

Data set [8] relates to Escherichia coli (ATCC 25922). Nature of the data set: Antimicrobial activity, MBC, E. coli ATCC 25922. The settings on record: 1 h at room temperature. As to the method:
as §2

Turning to `CC1(CS(=O)(=O)O)COC(=O)N1Cl` (centres unmarked) [Compound 22-01, (3-chloro-4-methyl-2-oxooxazolidin-4-yl)methanesulfonic acid], the “Minimum Fungicidal Concentration (MFC) (≧99.9% kill)” value was 128 µg/mL in data set [1] (pH 4 (Sal)), 128 µg/mL in data set [1] (pH 7 (PBS)), >512 µg/mL in data set [2] (pH 4 (Sal)) and 1024 µg/mL in data set [2] (pH 7 (PBS)). Besides, the “CT50 (concentration of test article that results in survival of 50% of the cells)” value in data set [3] was 1.1 mM. The “Minimum Bactericidal Concentration (MBC) (≧99.9% kill)” value was found to be 2 µg/mL in data set [4] (pH 4 (Sal)); 16 µg/mL in data set [4] (pH 7 (PBS)); 16 µg/mL in data set [5] (pH 4 (Sal)); 16 µg/mL in data set [5] (pH 7 (PBS)); 256 µg/mL in data set [6] (pH 4 (Sal)); 256 µg/mL in data set [6] (pH 7 (PBS)). Moreover, the “Minimum Bactericidal Concentration (MBC) (≧99.9% kill)” value in data set [7] was 256 µg/mL; in data set [8] (pH 4 (Sal)), 256 µg/mL; in data set [8] (pH 7 (PBS)), 128 µg/mL.

Take `C[N+]1(C)CCC2(CC1)CN(Cl)C(=O)O2.[Cl-]` [Compound 22-36, 3-chloro-8,8-dimethyl-2-oxo-1-oxa-3-aza-8-azoniaspiro[4.5]decane chloride]: in data set [2] (pH 7 (PBS)), the “Minimum Fungicidal Concentration (MFC) (≧99.9% kill)” value was 256 µg/mL. The “CT50 (concentration of test article that results in survival of 50% of the cells)” value in data set [3] is recorded as 0.7 mM. The “Minimum Bactericidal Concentration (MBC) (≧99.9% kill)” value in data set [6] (pH 4 (Sal)) stood at 512 µg/mL; in data set [6] (pH 7 (PBS)), 32 µg/mL; in data set [8] (pH 4 (Sal)) it was 256 µg/mL; in data set [8] (pH 7 (PBS)), 16 µg/mL.

On to `CC1(C[N+](C)(C)C)COC(=O)N1Cl.[Cl-]` (centres unmarked) [Compound 22-04, 1-(3-Chloro-4-methyl-2-oxooxazolidin-4-yl)-N,N,N-trimethylmethanaminium chloride], for which the “Minimum Fungicidal Concentration (MFC) (≧99.9% kill)” value in data set [2] (pH 4 (Sal)) was >256 µg/mL. The “Minimum Bactericidal Concentration (MBC) (≧99.9% kill)” value in data set [6] (pH 4 (Sal)) was 64 µg/mL; in data set [8] (pH 4 (Sal)), 16 µg/mL.

Take `CN1C(=O)N(Cl)C(C)(C[N+](C)(C)C)C1=O.[Cl-]` (centres unmarked) [Compound 22-27, 1-(3-chloro-1,4-dimethyl-2,5-dioxoimidazolidin-4-yl)-N,N,N-trimethylmethanaminium chloride]: in data set [2] (pH 4 (Sal)), the “Minimum Fungicidal Concentration (MFC) (≧99.9% kill)” value is >256 µg/mL. Besides, the “Minimum Bactericidal Concentration (MBC) (≧99.9% kill)” value in data set [6] (pH 4 (Sal)) amounted to 64 µg/mL; in data set [8] (pH 4 (Sal)) it was 16 µg/mL.

For `CC[N+](C)(C)CC1(C)COC(=O)N1Cl.[Cl-]` (centres unmarked) [Compound 22-38, N-((3-chloro-4-methyl-2-oxooxazolidin-4-yl)methyl)-N,N-dimethylethanaminium chloride], the “Minimum Fungicidal Concentration (MFC) (≧99.9% kill)” value in data set [2] (pH 7 (PBS)) was 8 µg/mL. Further, in data set [3], the “CT50 (concentration of test article that results in survival of 50% of the cells)” value worked out at 0.86 mM. In addition, the “Minimum Bactericidal Concentration (MBC) (≧99.9% kill)” value came to 64 µg/mL in data set [6] (pH 4 (Sal)), 4 µg/mL in data set [6] (pH 7 (PBS)), 16 µg/mL in data set [8] (pH 4 (Sal)) and 2 µg/mL in data set [8] (pH 7 (PBS)).

On to “2-(3-Chloro-4,4-dimethyl-2,5-dioxoimidazolidin-1-yl)-N,N,N-trimethylethanaminium chloride [Compound 22-48]”, for which the “Minimum Fungicidal Concentration (MFC) (≧99.9% kill)” value in data set [2] (pH 4 (Sal)) worked out at 1024 µg/mL; in data set [2] (pH 7 (PBS)), 128 µg/mL. For the same molecule, the “Minimum Bactericidal Concentration (MBC) (≧99.9% kill)” value in data set [6] (pH 4 (Sal)) was >128 µg/mL; in data set [6] (pH 7 (PBS)), 16 µg/mL; in data set [8] (pH 4 (Sal)), 128 µg/mL; in data set [8] (pH 7 (PBS)), 4 µg/mL.
